# Patent publication US4386075A, “Renally active tetrapeptides” (SmithKline Beckman Corporation, priority 1982, dated 1983)
# Key:
# [1] = system: spontaneously hypertensive rat; settings: in vivo
# toad bladder = toad bladder test
# anesthetized dogs = test: anesthetized dog infusion test (MAP, RBF, RVR, HR); type: in vivo; settings: for % change HR (heart rate) / % change MAP (mean arterial blood pressure) / % change RBF (renal blood flow) / % change RVR (renal vascular resistance): 1 dog
# Description: In the anesthetized dog protocol discussed above this compound gave the following data: […]
# [2] = secondary test
# [3] = 300 μg/kg/min, anesthetized dog, cumulative effects
compound,measurement,setting,value
"4-(4-hydroxyphenyl)-butyryl-L-propyl-D,L-α-methylphenylalanyl-glycyl-L-proline [Example 2]",activity in spontaneously hypertensive rat protocol,[1],not active
same,diuresis in spontaneously hypertensive rat protocol,[1],slight water diuresis
same,reversal of antidiuretic hormone activity,toad bladder,inactive
same,% change HR (heart rate),anesthetized dogs; infusion 3 μg/kg/min,6%
same,% change MAP (mean arterial blood pressure),anesthetized dogs; infusion 3 μg/kg/min,-5%
same,% change RBF (renal blood flow),anesthetized dogs; infusion 3 μg/kg/min,17%
same,% change RVR (renal vascular resistance),anesthetized dogs; infusion 3 μg/kg/min,-18%
same,% change HR (heart rate),anesthetized dogs; infusion 30 μg/kg/min,10%
same,% change MAP (mean arterial blood pressure),anesthetized dogs; infusion 30 μg/kg/min,-9%
same,% change RBF (renal blood flow),anesthetized dogs; infusion 30 μg/kg/min,16%
same,% change RVR (renal vascular resistance),anesthetized dogs; infusion 30 μg/kg/min,-21%
same,% change HR (heart rate),anesthetized dogs; infusion 300 μg/kg/min,6%
same,% change MAP (mean arterial blood pressure),anesthetized dogs; infusion 300 μg/kg/min,-6%
same,% change RBF (renal blood flow),anesthetized dogs; infusion 300 μg/kg/min,14%
same,% change RVR (renal vascular resistance),anesthetized dogs; infusion 300 μg/kg/min,-17%
same,"renal blood flow, cumulative effect","anesthetized dogs; measured after the normal period of the test, increased from 127 ml/min",162 mL/min
same,"cardiac rate (HR), cumulative effect","anesthetized dogs; measured after the normal period of the test, predrug level 140 BPM",105 BPM
same,ED15,[2],1.9 µg/kg
"NCCc1ccc(O)c(O)c1 [Dopamine, reference compound]",ED15,anesthetized dogs; dog test procedure,about 3 mcg/kg/min
same,% change HR (heart rate),anesthetized dogs; infusion 3 μg/kg/min,2%
same,% change MAP (mean arterial blood pressure),anesthetized dogs; infusion 3 μg/kg/min,-16%
same,% change RBF (renal blood flow),anesthetized dogs; infusion 3 μg/kg/min,28%
same,% change RVR (renal vascular resistance),anesthetized dogs; infusion 3 μg/kg/min,-34%
same,ED15,[2],3.5 µg/kg
N-4-(4-hydroxyphenyl)-butyryl-L-prolyl-D-phenylalanyl-glycyl-L-proline [Example 3],cumulative effect HR,anesthetized dogs; [3],-8
same,cumulative effect MAP,anesthetized dogs; [3],0
same,cumulative effect RBF,anesthetized dogs; [3],+22
same,cumulative effect RVR,anesthetized dogs; [3],-18
